From ChEMBL document CHEMBL1201862, “PubChem BioAssay data set” (2004)
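Briefly, cells in 96-well plates were exposed to five compound concentrations for 48 h, and endpoints were estimated by linear interpolation. The concentration for 50% growth inhibition is given as GI50.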 Activity calls are given as the source filed them. Cut-off read from the data, not from the text of the source: active = GI50 up to about 1.1 µM and inactive = higher.

Assays:
Assay in all cases: NCI-60 cell line screen, 48 h
NCI-H460 = test system: NCI-H460
PC-3 = test system: PC-3
ACHN = test system: ACHN
SK-MEL-28 = test system: SK-MEL-28
SW-620 = test system: SW-620
COLO 205 = test system: COLO 205
MOLT-4 = test system: MOLT-4
A549 = test system: A549
SF-295 = test system: SF-295
786-0 = test system: 786-0
HT-29 = test system: HT-29
CCRF-CEM = test system: CCRF-CEM
SF-539 = test system: SF-539
SN12C = test system: SN12C
Malme-3M = test system: Malme-3M
SNB-19 = test system: SNB-19
BT-549 = test system: BT-549
SNB-75 = test system: SNB-75
SK-OV-3 = test system: SK-OV-3
DU-145 = test system: DU-145
HCT-15 = test system: HCT-15
HOP-62 = test system: HOP-62
SK-MEL-2 = test system: SK-MEL-2
SK-MEL-5 = test system: SK-MEL-5
MDA-N = test system: MDA-N
M14 = test system: M14
LOX IMVI = test system: LOX IMVI
OVCAR-3 = test system: OVCAR-3
KM12 = test system: KM12
Hs-578T = test system: Hs-578T
IGROV-1 = test system: IGROV-1
TK-10 = test system: TK-10
SR = test system: SR
HCC 2998 = test system: HCC 2998
OVCAR-8 = test system: OVCAR-8
NCI-H522 = test system: NCI-H522
NCI-H226 = test system: NCI-H226
MCF7 = test system: MCF7
NCI-H23 = test system: NCI-H23
K562 = test system: K562
RPMI-8226 = test system: RPMI-8226
EKVX = test system: EKVX
MDA-MB-231 = test system: MDA-MB-231
UO-31 = test system: UO-31
HL-60 = test system: HL-60
HCT-116 = test system: HCT-116
UACC-257 = test system: UACC-257
NCI/ADR-RES = test system: NCI/ADR-RES
MDA-MB-435 = test system: MDA-MB-435
CAKI-1 = test system: CAKI-1
U-251 = test system: U-251
OVCAR-5 = test system: OVCAR-5
T47D = test system: T47D
A498 = test system: A498
SF-268 = test system: SF-268
UACC-62 = test system: UACC-62

With `CN1CC2=C(N=C(S)NC2c2ccc(Cl)cc2)/C(=C/c2ccc(Cl)cc2)C1` (stereo unspecified) as the compound, how does the GI50 (NCI-H460) read?
The GI50 was 14.8 µM (inactive).

What about the GI50 (PC-3) of the same compound?
Its GI50 is 9.4 µM (inactive).

What about the GI50 (ACHN) of the same compound?
The GI50 was 23 µM (inactive).

And the GI50 (SK-MEL-28)?
Its GI50 is 18.5 µM (inactive).

And the GI50 (SW-620)?
Its GI50 is 14.6 µM (inactive).

What about the GI50 (COLO 205) of the same compound?
Its GI50 is 17.4 µM (inactive).

What about the GI50 (MOLT-4) of the same compound?
The GI50 was 5.32 µM (inactive).

And the GI50 (A549)?
Its GI50 is 19 µM (inactive).

What about the GI50 (SF-295) of the same compound?
Its GI50 is 17.6 µM (inactive).

And the GI50 (786-0)?
Its GI50 is 24.4 µM (inactive).

What about the GI50 (HT-29) of the same compound?
The GI50 was 16.2 µM (inactive).

And the GI50 (CCRF-CEM)?
The GI50 was 13.5 µM (inactive).

What about the GI50 (SF-539) of the same compound?
The GI50 was 25.9 µM (inactive).

What about the GI50 (SN12C) of the same compound?
Its GI50 is 17.2 µM (inactive).

And the GI50 (Malme-3M)?
Its GI50 is 14.5 µM (inactive).

What about the GI50 (SNB-19) of the same compound?
The GI50 was > 10 µM (inactive).

And the GI50 (BT-549)?
Its GI50 is 20.4 µM (inactive).

What about the GI50 (SNB-75) of the same compound?
Its GI50 is 15.1 µM (inactive).

And the GI50 (SK-OV-3)?
The GI50 was 17.3 µM (inactive).

What about the GI50 (DU-145) of the same compound?
The GI50 was 14.1 µM (inactive).

And the GI50 (HCT-15)?
The GI50 was 13.8 µM.

What about the GI50 (HOP-62) of the same compound?
The GI50 was 19.2 µM (inactive).

And the GI50 (SK-MEL-2)?
Its GI50 is 13.3 µM (inactive).

What about the GI50 (SK-MEL-5) of the same compound?
The GI50 was 13.3 µM (inactive).

What about the GI50 (MDA-N) of the same compound?
The GI50 was 19.7 µM (inactive).

And the GI50 (M14)?
Its GI50 is 18.3 µM (inactive).

What about the GI50 (LOX IMVI) of the same compound?
The GI50 was 16.1 µM (inactive).

What about the GI50 (OVCAR-3) of the same compound?
Its GI50 is 15.3 µM (inactive).

And the GI50 (KM12)?
Its GI50 is 18.5 µM (inactive).

And the GI50 (Hs-578T)?
The GI50 was 16.6 µM (inactive).

And the GI50 (IGROV-1)?
Its GI50 is 16.1 µM (inactive).

What about the GI50 (TK-10) of the same compound?
Its GI50 is 22.6 µM (inactive).

What about the GI50 (SR) of the same compound?
Its GI50 is 15.6 µM (inactive).

What about the GI50 (HCC 2998) of the same compound?
Its GI50 is 16.6 µM (inactive).

And the GI50 (OVCAR-8)?
The GI50 was 17.5 µM (inactive).

What about the GI50 (NCI-H522) of the same compound?
The GI50 was 15.5 µM (inactive).

And the GI50 (NCI-H226)?
Its GI50 is > 10 µM (inactive).

What about the GI50 (MCF7) of the same compound?
Its GI50 is 22 µM (inactive).

And the GI50 (NCI-H23)?
Its GI50 is 20 µM (inactive).

And the GI50 (K562)?
The GI50 was 12.6 µM (inactive).

And the GI50 (RPMI-8226)?
The GI50 was 25.8 µM (inactive).

And the GI50 (EKVX)?
Its GI50 is 19.9 µM (inactive).

What about the GI50 (MDA-MB-231) of the same compound?
The GI50 was 20.8 µM (inactive).

What about the GI50 (UO-31) of the same compound?
The GI50 was 25.8 µM (inactive).

And the GI50 (HL-60)?
Its GI50 is 14.6 µM (inactive).

And the GI50 (HCT-116)?
The GI50 was 15.7 µM (inactive).

What about the GI50 (UACC-257) of the same compound?
Its GI50 is 20 µM (inactive).

And the GI50 (NCI/ADR-RES)?
Its GI50 is 17.2 µM (inactive).

And the GI50 (MDA-MB-435)?
The GI50 was 14.9 µM (inactive).

What about the GI50 (CAKI-1) of the same compound?
The GI50 was 18.3 µM (inactive).

And the GI50 (U-251)?
Its GI50 is 17.2 µM (inactive).

What about the GI50 (OVCAR-5) of the same compound?
Its GI50 is 15.8 µM (inactive).

What about the GI50 (T47D) of the same compound?
Its GI50 is 15 µM (inactive).

What about the GI50 (A498) of the same compound?
Its GI50 is > 10 µM (inactive).

And the GI50 (SF-268)?
The GI50 was 23.9 µM (inactive).

What about the GI50 (UACC-62) of the same compound?
Its GI50 is 18.2 µM (inactive).
